System: Liver cancer HepG2/ADR tumor-transplanted nude mouse model
Assay: Callback rate of serum and urine metabolic markers (targeted metabonomics, LC-MS/MS) in drug-resistant liver cancer nude mouse model
Assay type: in vivo, nude mice (nu/nu-BALB/c)
[1] = serum metabolic marker, 3 mg/kg, 0.2 ml tail vein injection once every three days, seven times, HepG2/ADR nude mice
[2] = urine metabolic marker, 3 mg/kg, 0.2 ml tail vein injection once every three days, seven times, HepG2/ADR nude mice

Method: Liver cancer HepG2/ADR tumor-transplanted nude mouse models were firstly established and divided into four groups with 30 mice in each group, and after one week of successful establishment of the model, the mice were administered in different methods:
Metabolic markers were quantified by a targeted metabonomics technology, and an efficacy of a drug for reversing tumor multidrug resistance to be evaluated was evaluated by a concentration of each metabolic marker.
Cell transplanting: ten nude mice without thymus, including five male mice and five female mice, were selected, after 10-day adaptation period, 0.2 ml of HepG2/ADR cells (cell concentration: 6×10^7 cells/ml) were subcutaneously injected into each nude mouse with a 23G sterile needle, and in order to prevent tumor cells from being destroyed and matrix gel from being solidified in the period, the injection should be completed as soon as possible. Before injection, the needle was shaken left and right to form an expanded subcutaneous cyst (because if the injection was performed to a specific area by not shaking the needle, the mixture could form a large cell mass, and ineffective perfusion of nutrients in a core of the mass into the cells could result in subsequent growth defects), and when the needle was taken out, the injector was rotated to prevent leakage of cell sap. After subcutaneous injection, the matrix gel was irreversibly solidified to form a red bulge, about 10 days later, the solidified matrix gel was eliminated, and the tumor cells were successfully inoculated, and after a tumor mass grew for three weeks, nude mice with the tumor of the same size (about 7 mm in diameter) were selected. The subcutaneous tumor mass was taken out, a peripheral part of the tumor mass was divided into small tumor masses of 2×2×2 mm, after the nude mice (nu/nu-BALB/c, half male nude mice and half female nude mice at six weeks old, n=30) were anesthetized with isoflurane, the small tumor masses were subcutaneously implanted into shoulders of the nude mice to make the tumor masses of liver cancer model mice similar in size and shape, thus reducing experimental errors caused by different tumor mass sizes. After successful transplantation, growth statuses of the model nude mice were observed and recorded every day, weights of the nude mice were recorded every two days, and tumor sizes (length and width) were measured with a vernier caliper.
Healthy group: only normal saline was administrated to 30 healthy nude mice without being inoculated with any tumor cells once every three days for a total of seven times, with a dose of 0.2 ml each time by an administration method of tail vein injection.
Negative control group: only normal saline was administrated to 30 liver cancer HepG2/ADR tumor-transplanted nude mouse models once every three days for a total of seven times, with a dose of 0.2 ml each time by an administration method of tail vein injection.
Mass spectra of standard substances of a-linolenic acid, 3-methylglutaric acid, 17-hydroxystearic acid, xanthurenic acid, indole-2-carboxylic acid and 3-furoic acid were measured to determine mass-spectrometric detection conditions of each metabolic marker.
A series of linear concentration samples of the standard substance of each metabolic marker were respectively measured using the detection conditions above to obtain a relationship between a peak area of a characteristic fragment particle peak and a concentration of each metabolic marker, and linear regression was performed to obtain a linear regression equation.

| SMILES | Callback rate, 3-methylglutaric acid [1] [%] | Callback rate, A-linolenic acid [1] [%] | Callback rate, 3-furoic acid [2] [%] | Callback rate, Xanthurenic acid [2] [%] | Callback rate, indole-2-carboxylic acid [2] [%] | effect of reversing tumor drug resistance, judged from the callback rates (result in words, comparison of groups in HepG2/ADR nude mice) |
| --- | --- | --- | --- | --- | --- | --- |
| COc1cccc2c1C(=O)c1c(O)c3c(c(O)c1C2=O)C[C@@](O)(C(=O)CO)C[C@@H]3O[C@H]1C[C@H](N)[C@H](O)[C@H](C)O1 [Positive control group, doxorubicin] | 13.69 | 17.56 | 12.30 | 19.08 | 12.73 |  |
| O=c1ccc2cc3ccoc3cc2o1 [psoralen] |  |  |  |  |  | really has the effect of reversing tumor drug resistance |
